Test results reported in US10183950B2, “Thienopyrimidine inhibitors of atypical protein kinase C” (Cancer Research Technology Limited, priority 2011, dated 2019).

Target: T1, full-length human PKCι (Homo sapiens, UniProt P41743)
T1 construct: Recombinant, full-length human PKCι expressed in Sf21 insect cells is also commercially available; purchased; host or cells: Sf21 insect cells
T1 sequence (P41743 1-596): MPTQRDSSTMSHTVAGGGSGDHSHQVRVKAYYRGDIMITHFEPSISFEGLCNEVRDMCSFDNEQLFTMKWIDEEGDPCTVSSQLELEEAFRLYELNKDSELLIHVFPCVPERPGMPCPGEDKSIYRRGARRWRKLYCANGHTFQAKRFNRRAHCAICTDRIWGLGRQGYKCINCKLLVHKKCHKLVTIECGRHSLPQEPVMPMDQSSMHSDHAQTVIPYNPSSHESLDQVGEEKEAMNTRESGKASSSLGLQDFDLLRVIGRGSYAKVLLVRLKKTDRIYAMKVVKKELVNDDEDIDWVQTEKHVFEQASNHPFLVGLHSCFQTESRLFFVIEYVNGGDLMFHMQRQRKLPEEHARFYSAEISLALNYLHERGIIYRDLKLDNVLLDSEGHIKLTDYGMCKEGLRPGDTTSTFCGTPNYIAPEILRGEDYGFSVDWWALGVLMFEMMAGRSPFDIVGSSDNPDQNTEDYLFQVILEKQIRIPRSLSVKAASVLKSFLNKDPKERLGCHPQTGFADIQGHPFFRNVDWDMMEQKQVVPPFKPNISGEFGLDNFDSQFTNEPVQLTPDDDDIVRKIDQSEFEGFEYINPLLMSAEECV
Assay: PKCι IC50 IMAP fluorescence polarisation assay, full-length enzyme
Type: biochemical
Settings: full length PKCi at 15 μM ATP; read-out: IC50 in IMAP assay against full length PKCi

IC50	SMILES
100 to 1000 nM	CCCNC(=O)c1csc2c(NC[C@@H](N)Cc3ccccc3)nc(-c3ccncc3)nc12 [compound 551, 4-((S)-2-Amino-3-phenyl-propylamino)-2-pyridin-4-yl-thieno[3,2-d]pyrimidine-7-carboxylic acid propylamide]
1000 to 10000 nM	CCN(CC)C(=O)c1csc2c(NC[C@@H](N)Cc3ccccc3)nc(-c3ccncc3)nc12 [compound 552, 4-((S)-2-Amino-3-phenyl-propylamino)-2-pyridin-4-yl-thieno[3,2-d]pyrimidine-7-carboxylic acid diethylamide]
< 100 nM	CNC(=O)c1csc2c(NC[C@@H](N)Cc3ccccc3)nc(-c3ccncc3)nc12 [compound 553, 4-((S)-2-Amino-3-phenyl-propylamino)-2-pyridin-4-yl-thieno[3,2-d]pyrimidine-7-carboxylic acid methylamide]
100 to 1000 nM	CCNC(=O)c1csc2c(NC[C@@H](N)Cc3ccccc3)nc(-c3ccncc3)nc12 [compound 554, 4-((S)-2-Amino-3-phenyl-propylamino)-2-pyridin-4-yl-thieno[3,2-d]pyrimidine-7-carboxylic acid ethylamide]
1000 to 10000 nM	CC(C)NC(=O)c1csc2c(NC[C@@H](N)Cc3ccccc3)nc(-c3ccncc3)nc12 [compound 555, 4-((S)-2-Amino-3-phenyl-propylamino)-2-pyridin-4-yl-thieno[3,2-d]pyrimidine-7-carboxylic acid isopropylamide]
100 to 1000 nM	N[C@H](CNc1nc(-c2ccncc2)nc2c(C(=O)NC3CC3)csc12)Cc1ccccc1 [compound 556, 4-((S)-2-Amino-3-phenyl-propylamino)-2-pyridin-4-yl-thieno[3,2-d]pyrimidine-7-carboxylic acid cyclopropylamide]
1000 to 10000 nM	CC(C)(C)NC(=O)c1csc2c(NC[C@@H](N)Cc3ccccc3)nc(-c3ccncc3)nc12 [compound 557, 4-((S)-2-Amino-3-phenyl-propylamino)-2-pyridin-4-yl-thieno[3,2-d]pyrimidine-7-carboxylic acid tert-butylamide]
100 to 1000 nM	C#Cc1csc2c(N[C@@H]3CCNC3)nc(-c3ccncc3)nc12 [compound 559, (7-Ethynyl-2-pyridin-4-yl-thieno[3,2-d]pyrimidin-4-yl)-(R)-pyrrolidin-3-yl-amine]
< 100 nM	N#Cc1csc2c(NC[C@@H](N)Cc3ccccc3)nc(-c3ccncc3)nc12 [compound 560, 4-((S)-2-Amino-3-phenyl-propylamino)-2-pyridin-4-yl-thieno[3,2-d]pyrimidine-7-carbonitrile]
100 to 1000 nM	N[C@H](CNc1nc(-c2ccncc2)nc2c(-n3cccn3)csc12)Cc1ccccc1 [compound 561, (S)-3-Phenyl-N*1*-(7-pyrazol-1-yl-2-pyridin-4-yl-thieno [3,2-d]pyrimidin-4-yl)-propane-1,2-diamine]
100 to 1000 nM	N[C@H](CNc1nc(-c2ccncc2)nc2c(-n3ccnn3)csc12)Cc1ccccc1 [compound 562, (S)-3-Phenyl-N*1*-(2-pyridin-4-yl-7-[1,2,3]triazol-1-yl-thieno[3,2-d]pyrimidin-4-yl)-propane-1,2-diamine]
1000 to 10000 nM	N[C@H](CNc1nc(-c2ccncc2)nc2c(CCC3CC3)csc12)Cc1ccccc1 [compound 563, (S)—N*1*-[7-(2-Cyclopropyl-ethyl)-2-pyridin-4-yl-thieno[3,2-d]pyrimidin-4-yl]-3-phenyl-propane-1,2-diamine]
1000 to 10000 nM	N[C@H](CNc1nc(-c2cc[n+]([O-])cc2)nc2c(Br)csc12)Cc1ccccc1 [compound 564, (S)—N*1*-[7-Bromo-2-(1-oxy-pyridin-4-yl)-thieno[3,2-d]pyrimidin-4-yl]-3-phenyl-propane-1,2-diamine]
1000 to 10000 nM	N[C@H](CNc1nc(-c2cc[n+]([O-])cc2)nc2c(-c3ccn[nH]3)csc12)Cc1ccccc1 [compound 565, (S)—N*1*-[2-(1-Oxy-pyridin-4-yl)-7-(2H-pyrazol-3-yl)-thieno[3,2-d]pyrimidin-4-yl]-3-phenyl-propane-1,2-diamine]
100 to 1000 nM	Nc1csc2c(NC[C@@H](N)Cc3ccccc3)nc(-c3ccncc3)nc12 [compound 566, N*4*-((S)-2-Amino-3-phenyl-propyl)-2-pyridin-4-yl-thieno[3,2-d]pyrimidine-4,7-diamine]
1000 to 10000 nM	Nc1csc2c(N[C@@H]3CCNC3)nc(-c3ccncc3)nc12 [compound 567, 2-Pyridin-4-yl-N*4*-(R)-pyrrolidin-3-yl-thieno[3,2-d]pyrimidine-4,7-diamine]

The remaining lines, values behind:

SMILES	IC50
N[C@H](CNc1nc(-c2ccncc2)nc2c(C#CCCCO)csc12)Cc1ccccc1 [compound 535, 5-[4-((S)-2-Amino-3-phenyl-propylamino)-2-pyridin-4-yl-thieno[3,2-d]pyrimidin-7-yl]-pent-4-yn-1-ol]	1000 to 10000 nM
CC(O)CC#Cc1csc2c(NC[C@@H](N)Cc3ccccc3)nc(-c3ccncc3)nc12 (stereo partly drawn) [compound 536, 5-[4-((S)-2-Amino-3-phenyl-propylamino)-2-pyridin-4-yl-thieno[3,2-d]pyrimidin-7-yl]-pent-4-yn-2-ol]	< 100 nM
CC(C)(O)CC#Cc1csc2c(NC[C@@H](N)Cc3ccccc3)nc(-c3ccncc3)nc12 [compound 537, 5-[4-((S)-2-Amino-3-phenyl-propylamino)-2-pyridin-4-yl-thieno[3,2-d]pyrimidin-7-yl]-2-methyl-pent-4-yn-2-ol]	100 to 1000 nM
CNCC#Cc1csc2c(NC[C@@H](N)Cc3ccccc3)nc(-c3ccncc3)nc12 [compound 538, (S)-N*1*-[7-(3-Methylamino-prop-1-ynyl)-2-pyridin-4-yl-thieno[3,2-d]pyrimidin-4-yl]-3-phenyl-propane-1,2-diamine]	100 to 1000 nM
N[C@H](CNc1nc(-c2ccncc2)nc2c(C#CC3(O)CCC3)csc12)Cc1ccccc1 [compound 539, 1-[4-((S)-2-Amino-3-phenyl-propylamino)-2-pyridin-4-yl-thieno[3,2-d]pyrimidin-7-ylethynyl]-cyclobutanol]	< 100 nM
C[C@H](O)CC#Cc1csc2c(NC[C@@H](N)Cc3ccccc3)nc(-c3ccncc3)nc12 [compound 540, (S)-5-[4-((S)-2-Amino-3-phenyl-propylamino)-2-pyridin-4-yl-thieno[3,2-d]pyrimidin-7-yl]-pent-4-yn-2-ol]	100 to 1000 nM
C#Cc1csc2c(NC[C@@H](N)Cc3ccccc3)nc(-c3ccncc3)nc12 [compound 541, (S)-N*1*-(7-Ethynyl-2-pyridin-4-yl-thieno[3,2-d]pyrimidin-4-yl)-3-phenyl-propane-1,2-diamine]	< 100 nM
CC#Cc1csc2c(NC[C@@H](N)Cc3ccccc3)nc(-c3ccncc3)nc12 [compound 542, (S)-3-Phenyl-N*1*-(7-prop-1-ynyl-2-pyridin-4-yl-thieno[3,2-d]pyrimidin-4-yl)-propane-1,2-diamine]	< 100 nM
C#Cc1sc2c(N[C@@H]3CCNC3)nc(-c3ccncc3)nc2c1C [compound 543, (6-Ethynyl-7-methyl-2-pyridin-4-yl-thieno[3,2-d]pyrimidin-4-yl)-(R)-pyrrolidin-3-yl-amine]	1000 to 10000 nM
C[C@@H](F)C#Cc1csc2c(NC[C@@H](N)Cc3ccccc3)nc(-c3ccncc3)nc12 [compound 544, (S)—N*1*-[7-(3-Fluoro-but-1-ynyl)-2-pyridin-4-yl-thieno[3,2-d]pyrimidin-4-yl]-3-phenyl-propane-1,2-diamine]	< 100 nM
N[C@H](CNc1nc(-c2ccncc2)nc2c(C#CCF)csc12)Cc1ccccc1 [compound 545, (S)-N*1*-[7-(3-Fluoro-prop-1-ynyl)-2-pyridin-4-yl-thieno[3,2-d]pyrimidin-4-yl]-3-phenyl-propane-1,2-diamine]	< 100 nM
N[C@H](CNc1nc(-c2ccncc2)nc2c(C#CCCF)csc12)Cc1ccccc1 [compound 546, (S)-N*1*-[7-(4-Fluoro-but-1-ynyl)-2-pyridin-4-yl-thieno[3,2-d]pyrimidine]	100 to 1000 nM
N[C@H](CNc1nc(-c2ccncc2)nc2c(-c3cn[nH]n3)csc12)Cc1ccccc1 [compound 547, (S)-3-Phenyl-N*1*-[2-pyridin-4-yl-7-(3H-[1,2,3]triazol-4-yl)-thieno[3,2-d]pyrimidin-4-yl]-propane-1,2-diamine]	< 100 nM
N[C@H](CNc1nc(-c2ccncc2)nc2c(C#Cc3cscn3)csc12)Cc1ccccc1 [compound 548, (S)-3-Phenyl-N*1*-(2-pyridin-4-yl-7-thiazol-4-ylethynyl-thieno[3,2-d]pyrimidin-4-yl)-propane-1,2-diamine]	100 to 1000 nM
N[C@H](CNc1nc(-c2ccncc2)nc2c(C#Cc3cc[nH]n3)csc12)Cc1ccccc1 [compound 549, (S)-3-Phenyl-N*1*-[7-(1H-pyrazol-3-ylethynyl)-2-pyridin-4-yl-thieno[3,2-d]pyrimidin-4-yl]-propane-1,2-diamine]	< 100 nM
CN(C)C(=O)c1csc2c(NC[C@@H](N)Cc3ccccc3)nc(-c3ccncc3)nc12 [compound 550, 4-((S)-2-Amino-3-phenyl-propylamino)-2-pyridin-4-yl-thieno[3,2-d]pyrimidine-7-carboxylic acid dimethylamide]	1000 to 10000 nM
